The first assay has as its target thymidine phosphorylase (Escherichia coli, UniProt P07650). As to the kind of experiment: In vitro thymidine phosphorylase inhibition (spectrophotometric, absorbance at 290 nm).
Conditions: not given
Format: biochemical, human and E. coli. As for the experimental part:
The desired activity of thymidine phosphorylase under this protocol was carried out with slight modification in the method described by Krenitsky and Bush in 1979[46],[47]. Here, TP activity was determined through spectrophotometrically by absorbance at 290 nm. Although the whole reaction mixture of 200 µL have the limit of 145 µL of potassium phosphate buffer (pH 7.4, 50 mM), 30 µL of enzyme (human and E. coli) by concentration 0.05 and 0.002 U, distinectly, followed by incubation through 5 µL of test materials (0.075, 0.15, 0.3 and 0.5 mM) at 25 °C for 10 min in triplet reader. Subsequently, pre-read at 290 nm was taken to conclude the absorbance of concern substrate particles. The crave substrate “thyimidin” (20 µL, 1.5 mM), was then dissolved in the buffer (potassium phosphate), followed by instant addition to plate with constant read after every 10, 20 and 30 min in micro plate reader (spectra max, molecular devices, CA, USA). All the assay were implemented in triplicate under positive control of 7-Deazxanthine.
Chain of thymidine phosphorylase (P07650 whole entry): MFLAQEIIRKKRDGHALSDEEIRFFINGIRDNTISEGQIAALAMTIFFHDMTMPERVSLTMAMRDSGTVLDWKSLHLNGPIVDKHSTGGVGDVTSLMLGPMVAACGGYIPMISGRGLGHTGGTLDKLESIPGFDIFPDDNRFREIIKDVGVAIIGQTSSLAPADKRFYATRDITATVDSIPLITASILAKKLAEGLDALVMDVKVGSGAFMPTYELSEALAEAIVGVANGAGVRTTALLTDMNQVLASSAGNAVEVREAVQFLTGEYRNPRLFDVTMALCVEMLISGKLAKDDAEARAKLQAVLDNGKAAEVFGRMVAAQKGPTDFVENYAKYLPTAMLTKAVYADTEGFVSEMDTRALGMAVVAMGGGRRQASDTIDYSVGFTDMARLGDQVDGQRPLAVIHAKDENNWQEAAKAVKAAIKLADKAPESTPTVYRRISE
`O=C(NN=Cc1c2ccccc2cc2ccccc12)c1ccc(-c2nnc(-c3cc4ccccc4cn3)o2)cc1` [analogue 2, N’-(anthracen-9-ylmethylene)-4-(5-(isoquinolin-3-yl)-1,3,4-oxadiazol-2-yl)benzohydrazide]: the “inhibitory potential compared with the standard 7-Deazaxanthine (in words)” value is reported as “good inhibitory activity”.

Regarding `COc1cc(C=NNC(=O)c2ccc(-c3nnc(-c4cc5ccccc5cn4)o3)cc2)cc(OC)c1OC` [analogue 15, 4-(5-(isoquinolin-3-yl)-1,3,4-oxadiazol-2-yl)-N’-(3,4,5-trimethoxybenzylidene)benzohydrazide], the “inhibitory potential compared with the standard 7-Deazaxanthine (in words)” value is “good inhibitory activity”.

With `COc1ccc(C=NNC(=O)c2ccc(-c3nnc(-c4cc5ccccc5cn4)o3)cc2)c(OC)c1OC` [analogue 19, 4-(5-(isoquinolin-3-yl)-1,3,4-oxadiazol-2-yl)-N’-(2,3,4-trimethoxybenzylidene)benzohydrazide], the “inhibitory potential compared with the standard 7-Deazaxanthine (in words)” value is “good inhibitory activity”.

Still in this assay, the particulars now being: read-out: IC50 value, thymidine phosphorylase inhibitory activity.
The term IC50 denotes the point on the concentration scale where inhibition reaches its midpoint. In the case of `O=C(NN=Cc1c2ccccc2cc2ccccc12)c1ccc(-c2nnc(-c3cc4ccccc4cn3)o2)cc1` [analogue 2, N’-(anthracen-9-ylmethylene)-4-(5-(isoquinolin-3-yl)-1,3,4-oxadiazol-2-yl)benzohydrazide], the IC50 came out at 39.4 ± 0.9 µM.

Turning to `COc1cccc(C=NNC(=O)c2ccc(-c3nnc(-c4cc5ccccc5cn4)o3)cc2)c1O` [analogue 18, N’-(2-hydroxy-3-methoxybenzylidene)-4-(5-(isoquinolin-3-yl)-1,3,4-oxadiazol-2-yl)benzohydrazide], the half-maximal inhibitory concentration (IC50) came to 7.3 ± 0.2 µM.

Regarding `COc1cc(C=NNC(=O)c2ccc(-c3nnc(-c4cc5ccccc5cn4)o3)cc2)ccc1O` [analogue 13, N’-(4-hydroxy-3-methoxybenzylidene)-4-(5-(isoquinolin-3-yl)-1,3,4-oxadiazol-2-yl)benzohydrazide], the IC50 is 6 ± 0.2 µM.

Regarding `O=C(NN=Cc1ccc(COc2ccccc2)cc1)c1ccc(-c2nnc(-c3cc4ccccc4cn3)o2)cc1` [analogue 4, 4-(5-(isoquinolin-3-yl)-1,3,4-oxadiazol-2-yl)-N’-(4-(phenoxymethyl)benzylidene)benzohydrazide], the IC50 is 28.3 ± 0.5 µM.

Take `COc1cc(C=NNC(=O)c2ccc(-c3nnc(-c4cc5ccccc5cn4)o3)cc2)cc(OC)c1O` [analogue 11, N’-(4-hydroxy-3,5-dimethoxybenzylidene)-4-(5-(isoquinolin-3-yl)-1,3,4-oxadiazol-2-yl)benzohydrazide]: the IC50 worked out at 5.3 ± 0.2 µM.

`COc1ccc(Br)cc1C=NNC(=O)c1ccc(-c2nnc(-c3cc4ccccc4cn3)o2)cc1` [analogue 7, N’-(5-bromo-2-methoxybenzylidene)-4-(5-(isoquinolin-3-yl)-1,3,4-oxadiazol-2-yl)benzohydrazide]: the IC50 was determined as 36.7 ± 0.9 µM.

On to `COc1cc(C=NNC(=O)c2ccc(-c3nnc(-c4cc5ccccc5cn4)o3)cc2)cc(OC)c1OC` [analogue 15, 4-(5-(isoquinolin-3-yl)-1,3,4-oxadiazol-2-yl)-N’-(3,4,5-trimethoxybenzylidene)benzohydrazide], for which the IC50 was 47.3 ± 1.2 µM.

Consider `O=C(NN=Cc1ccccc1[N+](=O)[O-])c1ccc(-c2nnc(-c3cc4ccccc4cn3)o2)cc1` [analogue 1, 4-(5-(isoquinolin-3-yl)-1,3,4-oxadiazol-2-yl)-N’-(2-nitrobenzylidene)benzohydrazide], for which the IC50 is 6.3 ± 0.2 µM.

Regarding `N#Cc1cccc(C=NNC(=O)c2ccc(-c3nnc(-c4cc5ccccc5cn4)o3)cc2)c1` [analogue 14, N’-(3-cyanobenzylidene)-4-(5-(isoquinolin-3-yl)-1,3,4-oxadiazol-2-yl)benzohydrazide], the IC50 worked out at 27.4 ± 0.7 µM.

Consider `O=C(NN=Cc1ccc(O)c(O)c1O)c1ccc(-c2nnc(-c3cc4ccccc4cn3)o2)cc1` [analogue 20, 4-(5-(isoquinolin-3-yl)-1,3,4-oxadiazol-2-yl)-N’-(2,3,4-trihydroxybenzylidene)benzohydrazide], for which the IC50 came out at 1.1 ± 0.05 µM.

`N#Cc1ccc(C=NNC(=O)c2ccc(-c3nnc(-c4cc5ccccc5cn4)o3)cc2)cc1` [analogue 17, N’-(4-cyanobenzylidene)-4-(5-(isoquinolin-3-yl)-1,3,4-oxadiazol-2-yl)benzohydrazide]: the IC50 was 22.1 ± 0.5 µM.

Regarding `CN(C)c1ccc(C=NNC(=O)c2ccc(-c3nnc(-c4cc5ccccc5cn4)o3)cc2)cc1` [analogue 8, N’-(4-(dimethylamino)benzylidene)-4-(5-(isoquinolin-3-yl)-1,3,4-oxadiazol-2-yl)benzohydrazide], the IC50 stood at 18.8 ± 0.5 µM.

For `Nc1cccc(C=NNC(=O)c2ccc(-c3nnc(-c4cc5ccccc5cn4)o3)cc2)c1` [analogue 10, N’-(3-aminobenzylidene)-4-(5-(isoquinolin-3-yl)-1,3,4-oxadiazol-2-yl)benzohydrazide], the IC50 is 1.1 ± 0.1 µM.

With `O=C(NN=Cc1ccc(Cl)cc1Cl)c1ccc(-c2nnc(-c3cc4ccccc4cn3)o2)cc1` [analogue 3, N’-(2,4-dichlorobenzylidene)-4-(5-(isoquinolin-3-yl)-1,3,4-oxadiazol-2-yl)benzohydrazide], the IC50 was found to be 3.3 ± 0.1 µM.

`O=C(NN=Cc1cc(Cl)cc(Cl)c1O)c1ccc(-c2nnc(-c3cc4ccccc4cn3)o2)cc1` [analogue 9, N’-(3,5-dichloro-2-hydroxybenzylidene)-4-(5-(isoquinolin-3-yl)-1,3,4-oxadiazol-2-yl)benzohydrazide]: the IC50 stood at 2.4 ± 0.1 µM.

On to `N#Cc1ccccc1C=NNC(=O)c1ccc(-c2nnc(-c3cc4ccccc4cn3)o2)cc1` [analogue 16, N’-(2-cyanobenzylidene)-4-(5-(isoquinolin-3-yl)-1,3,4-oxadiazol-2-yl)benzohydrazide], for which the IC50 came to 18.5 ± 0.5 µM.

`CC(=NNC(=O)c1ccc(-c2nnc(-c3cc4ccccc4cn3)o2)cc1)c1ccc([N+](=O)[O-])cc1` [analogue 5, 4-(5-(isoquinolin-3-yl)-1,3,4-oxadiazol-2-yl)-N’-(1-(4-nitrophenyl)ethylidene)benzohydrazide]: the IC50 stood at 14.6 ± 0.4 µM.

As for `COc1ccc(C=NNC(=O)c2ccc(-c3nnc(-c4cc5ccccc5cn4)o3)cc2)c(OC)c1OC` [analogue 19, 4-(5-(isoquinolin-3-yl)-1,3,4-oxadiazol-2-yl)-N’-(2,3,4-trimethoxybenzylidene)benzohydrazide], the IC50 was 54.6 ± 1.5 µM.

As to `COc1ccc(C=NNC(=O)c2ccc(-c3nnc(-c4cc5ccccc5cn4)o3)cc2)cc1O` [analogue 12, N’-(3-hydroxy-4-methoxybenzylidene)-4-(5-(isoquinolin-3-yl)-1,3,4-oxadiazol-2-yl)benzohydrazide], the IC50 came to 4.6 ± 0.1 µM.

Regarding `O=C(NN=Cc1ccc(Cl)cc1)c1ccc(-c2nnc(-c3cc4ccccc4cn3)o2)cc1` [analogue 6, N’-(4-chlorobenzylidene)-4-(5-(isoquinolin-3-yl)-1,3,4-oxadiazol-2-yl)benzohydrazide], the IC50 was 16.4 ± 0.5 µM.
